Source: USRE49579E1, “Non-peptidic GAPDH aggregation inhibitor” (University Public Corporation Osaka, priority 2015, dated 2023)
Where two headings read alike, the source gives them in different places. Residues, ends and D or L forms follow the SMILES beside them. No end group written: not given here.

What was measured:
purified human GAPDH [1] = biological target: T1, purified human GAPDH (Homo sapiens, UniProt P04406); assay: GAPDH aggregation inhibitory activity (first screening, turbidity at 405 nm); type: biochemical; settings: for 1st. Screening Potency Inhibitory activity (%) (50 μM at 48 h) in vitro: 50 μM peptide, 5 μM GAPDH, 37° C.
T1 sequence (P04406 whole entry): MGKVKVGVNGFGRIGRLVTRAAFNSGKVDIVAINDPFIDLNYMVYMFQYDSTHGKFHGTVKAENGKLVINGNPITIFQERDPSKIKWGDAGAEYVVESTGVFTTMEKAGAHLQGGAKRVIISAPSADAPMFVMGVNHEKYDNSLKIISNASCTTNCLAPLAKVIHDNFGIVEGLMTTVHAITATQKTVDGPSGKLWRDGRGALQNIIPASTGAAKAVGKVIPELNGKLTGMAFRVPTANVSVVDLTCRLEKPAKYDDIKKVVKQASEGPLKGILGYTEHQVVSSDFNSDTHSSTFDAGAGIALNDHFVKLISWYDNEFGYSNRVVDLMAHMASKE
Experimental: As the first screening, GAPDH aggregation inhibitory activities, which represents potency, were measured. According to a method described in Patent Document 1, a peptide was added to a solution in which 5 μM purified human GAPDH was dissolved in Buffer G2 so that, the concentration of the peptide was 50 μM, and then incubated at 37° C. for 48 hours. Then the aggregation inhibitory rate of GAPDH was measured using the turbidity (absorbance at 405 nm) of the solution.

[2] = Cytotoxicity: viability of PC12 cells in the presence of peptide (second screening A); type: cell-based; settings: rat, PC12 cells
Experimental: (§1) As the second screening, A) the viability of PC12 cells in the presence of a peptide, which represented cytotoxicity, B) effects on the GAPDH enzymatic activity, which represented side effects, and C) effects on amyloid formation, which represented specificity, were each investigated.
(§2) PC12 cells cultured to 80% confluence were cultured at 37° C. for 72 hours in the presence of 50 μM peptide, and the cell viability was measured in accordance with the conventional method.

purified human GAPDH [3] = biological target: T1, purified human GAPDH; assay: Side effects: effect on GAPDH enzymatic activity (second screening B); type: biochemical; settings: for 2nd. Screening Side effect Effect on GAPDH Activity (%) in vitro: 10 μM peptide, 0.01 μM GAPDH
Experimental: as §1
A 10 μM peptide was added to 0.01 μM purified human GAPDH, and the enzymatic activity of GAPDH was measured in accordance with a method described in Patent Document 1.

Aβ25-35 = biological target: T2, Aβ25-35 (Homo sapiens, UniProt P05067); assay: Specificity: effect on amyloid formation (second screening C, fluorescence); type: biochemical; settings: 25 μM amyloid β, 37° C., 1 hour
T2 construct: Aβ25-35
Experimental: as §1
A solution containing 25 μM […] was incubated at 37° C. for 1 hour, and formation of amyloid aggregates was evaluated using the fluorescence intensity from the solution in accordance with a method described in Patent Document 1.

Aβ40-treated PC12 cells = assay: Cytoprotective effects on Aβ1-40 induced PC12 cell death (third screening); type: cell-based
[4] = test system: Aβ1-40 induced PC12 cell death; assay: Protective effects on amyloid β induced cell death in the presence of GAPDH-Seeds; type: cell-based; settings: GAPDH-Seeds (1%), GAI-17 50 μM, FIG. 2
stroke model mouse = assay: Cerebroprotective effects in a stroke model (MCAO); type: in vivo; settings: 60 nmol/mouse intraventricular, FIG. 4
Experimental: To a stroke model mouse, 60 nmol/mouse of a peptide was intraventricularly administered, and the reduction in cerebral infarction volume and the improvement in neurological symptoms after 24 hours were determined. The stroke model mouse was prepared in accordance with a method by of Andrabi et al. (Andrabi et al., Nat Med., 2011, June; 17(6): 692-9). A mouse was maintained under the state of ischemia for 30 minutes, and then perfusion was re-started. The cerebral infarction volume was measured […] after ischemia started. Further, in accordance with the method by Andrabi et al. (supra), a neurological score was determined for neurological symptoms of the mouse to evaluate the improvement in neurological symptoms.

PC12 cells = assay: Cytotoxicity: viability of PC12 cells in the presence of peptide (second screening A); type: cell-based; settings: FIG. 7
Experimental: as §1, §2

[5] = read-out: IC50 (MEAN ± S.E.) for the GAPDH aggregation inhibitory activity in vitro

| Compound | IC50 (purified human GAPDH [1]) | 1st. Screening Potency Inhibitory activity (%) (50 μM at 48 h) in vitro (purified human GAPDH [1]) | viability at 72 h, 50 µM ([2]; 50 μM peptide, 37° C., 72 hours, read-out: 2nd. Screening Cytotoxicity Cell viability (%) in PC12 cells) | 2nd. Screening Side effect Effect on GAPDH Activity (%) in vitro (purified human GAPDH [3]) | 2nd. Screening Specificity Effect on Aβ25-35 amyloidogenesis (%) in vitro (Aβ25-35) | 3rd. Screening Effectiveness Cytoprotection (%) in Aβ40-treated PC12 cells (Aβ40-treated PC12 cells) | IC50 (purified human GAPDH [1]; [5]) | viability at 72 h, 50 µM [2] | protective effects on amyloid β40 induced PC12 cell death [4] | cerebral infarction volume (stroke model mouse) | neurological symptoms (stroke model mouse; after 24 hours) | aggregation inhibitory activity in the first screening, compared with lead compound (purified human GAPDH [1]; FIG. 6) | cytotoxicity in the second screening, compared with lead compound (PC12 cells) | GAPDH enzymatic activity in the second screening (purified human GAPDH [3]; FIG. 7) |
| --- | --- | --- | --- | --- | --- | --- | --- | --- | --- | --- | --- | --- | --- | --- |
| SNASCTTNAL [GAI-1, SNASCTTNAL, reference compound] | 50000 ± 200 nM | 53.2 ± 1.73% | 104 ± 1.37% | 105 ± 1.80% | 103 ± 9.94% | 48.0 ± 3.85% | – | – | – | – | – | – | – | – |
| C[C@@H](O)[C@H](NC(=O)[C@H](CS)NC(=O)[C@@H](N)CO)C(=O)O [GAI-17, SCT] (H-Ser-Cys-Thr-OH; N-terminus and C-terminus assumed) | – | 97.7 ± 1.48% | – | 97.9 ± 0.72% | 102 ± 6.39% | 99.4 ± 1.21% | 1190 ± 150 nM | 100 ± 0.76% | protective effects | decrease cerebral infarction volume | improve neurological symptoms | – | – | – |
| C[C@@H](O)CNC(=O)[C@H](CS)NCCCO [TN-101] | – | – | – | – | – | – | 900 ± 110 nM | – | – | – | – | superior to that of the lead compound | comparable with or smaller than those of the lead compound | uninhibited GAPDH enzymatic activity |
